Results from US4968539A, “Liquid crystal membrane” (Lion Corporation, priority 1987, dated 1990).
Where two headings read alike, the source gives them in different places. Values belong to the compound of their own block, whether it stands above or below them.

Assays:
[1] = Ketoprofen concentration in the blood after application to rabbit abdomen; assay type: in vivo, white rabbits
Experimental: (§1) Hair was removed from the abdomen of a white rabbits weighing 2.0 to 2.5 kg with an electric clipper and the abdomen was then shaved with an electric razor carefully so as not to hurt the skin. A glass cell kept at a constant temperature by circulation of warm water was fixed thereon with a quick adhesive (Alon Alpha® of Toa Gosei Co.) through a membrane sample.
(§2) A drug solution was placed in the glass cell and the concentration of the drug in the blood was determined at time intervals over 48 h. In this experiment, the blood sample was taken from the ear vein of the rabbit at given time intervals and the drug concentration was analyzed according to liquid chromatography.
(§3) The polymer membrane and the drug solution used in this experiment were prepared as follows: in the example of the present invention, a polypropylene membrane (Celgard® 2402 having a port diameter of 0.02 μm and porosity of 38%) was immersed in 15% or 20% solution of polyoxyethylene(3 mol) trimethylolpropane tristearate (TPS-303® of Nippon Emulsion Co.) in chloroform for one hour and then air-dried to obtain the membrane. The drug solution used in this example was 50% aqueous N-methyl-2-pyrrolidone solution further containing 0.01 g/ml of indomethacin.
A change of the concentration of ketoprofen in the blood was investigated with the same polymer membrane in the same manner as those of Example 6 except that 3 ml of 30% aqueous ethanol solution in which 0.01 g/ml of ketoprofen had been suspended was used.

in vivo = test: in vivo; design: species or system white rabbits; settings: rabbit
Experimental: as §1, §2, §3
In a comparative example, about 1 wt.% of indomethacin was mixed in 100 parts by weight of an ointment base comprising 40% of ethyl alcohol, 58.4% of water, 1.5% of a polycarboxylic acid (Carbopol 940® of Goodrich Chemical Co.) and 0.1% of triethanolamine to prepare an ointment. 3 g of the ointment was placed in the constant temperature glass cell. No polymer membrane was used.

[2] = plaster of clonidine; American Heart Journal, 217-222, July (1984); cited from earlier work
[3] = Cumulative amount of nitroglycerin permeated through hairless rat skin, two-chamber diffusion cell; assay type: in vitro ADME; settings: 38° C.
Experimental: The same membrane sample as that of Example 2 and the same skin of hairless rat as that of Example 3 were mounted in the glass 2-chamber diffusion cell in the same manner as described above. 0.1% aqueous nitroglycerin solution was placed in the donor-side chamber and a phosphate buffer solution (pH 7.4) was placed in the receiver chamber. An increase of the concentration of nitroglycerin in the receiver chamber with time was determined by HPLC. As a control, only the skin free from the sample membrane was used in the experiment of the permeation of nitroglycerin through the skin. The experiment was conducted at 38° C.

[4] = Amount of acetaminophen permeated through hairless rat skin with membrane, two-chamber diffusion cell; assay type: in vitro ADME, WBN/Kob hairless rats
Experimental: The skin of the abdomen of WBN/Kob hairless rats ("Saitama" experimental animal) was taken under anesthesia (60 mg/kg pentobarbital, I.P.). A membrane sample prepared in the same manner as that of Example 3 was applied to the corneous layer-side of the skin specimens and they were placed in a glass two-chamber diffusion cell. 10% aqueous ethanol solution containing 2.4% of acetaminophen dissolved therein was placed in a donor-side chamber thereof and a phosphate buffer solution (pH 7.4) was placed in a receiver-side chamber. Increase in acetaminophen concentration in the receiver-side chamber with time was determined by HPLC.

[5] = rabbit, blood, topical or ocular, 32° C., read-out: Concentration of drug in blood
[6] = rabbit, blood, topical or ocular, 38° C., read-out: Concentration of drug in blood

Compound: CC(C(=O)O)c1cccc(C(=O)c2ccccc2)c1 (stereo not shown) [ketoprofen]
Concentration of drug in blood ([1]; 32° C., 6 hr): 0 ng/mL
concentration at 24 h [1, 5]: 18 ng/mL
concentration at 48 h [1, 5]: 17 ng/mL
concentration at 6 h ([1]; rabbit, blood, topical or ocular, 38° C., 6 hr, read-out: Concentration of drug in blood): 740 ng/mL
concentration at 24 h [1, 6]: 410 ng/mL
concentration at 48 h [1, 6]: 300 ng/mL

Concentration of drug in blood (in vivo; 360 min): 0 ng/mL
Concentration of drug in blood (in vivo; 2880 min): 0 ng/mL
Concentration of drug in blood (in vivo; topical or ocular, 6 h): 22 ng/mL
concentration at 6 h (in vivo; topical or ocular, Concentration of drug in blood): 20 ng/mL
Compound: COc1ccc2c(c1)c(CC(=O)O)c(C)n2C(=O)c1ccc(Cl)cc1 [indomethacin]

Compound: Clc1cccc(Cl)c1N=C1NCCN1 [clonidine]
Time to attain an effective concentration in the blood [2]: three

Compound: O=[N+]([O-])OCC(CO[N+](=O)[O-])O[N+](=O)[O-] [nitroglycerin]
Cumulative amount of permeated nitroglycerin ([3]; With polymer membrane of the present invention, 2 h): 26 μg/cm^2
Cumulative amount of permeated nitroglycerin ([3]; With polymer membrane of the present invention, 4 hr): 92 μg/cm^2
Cumulative amount of permeated nitroglycerin ([3]; With polymer membrane of the present invention, 6 hr): 185 μg/cm^2
Cumulative amount of permeated nitroglycerin ([3]; With polymer membrane of the present invention, 8 hr): 274 μg/cm^2
Cumulative amount of permeated nitroglycerin ([3]; With polymer membrane of the present invention, 10 hr): 365 μg/cm^2
Cumulative amount of permeated nitroglycerin ([3]; Without polymer membrane (skin only), 2 h): 8 μg/cm^2
Cumulative amount of permeated nitroglycerin ([3]; Without polymer membrane (skin only), 4 hr): 44 μg/cm^2
Cumulative amount of permeated nitroglycerin ([3]; Without polymer membrane (skin only), 6 hr): 101 μg/cm^2
Cumulative amount of permeated nitroglycerin ([3]; Without polymer membrane (skin only), 8 hr): 154 μg/cm^2
Cumulative amount of permeated nitroglycerin ([3]; Without polymer membrane (skin only), 10 hr): 218 μg/cm^2

Amount of drug permeated through the skin ([4]; 32° C., 2 hr): 0 μg/cm^2
Amount of drug permeated through the skin ([4]; 32° C., 4 hr): 0 μg/cm^2
Amount of drug permeated through the skin ([4]; 32° C., 12 hr): 0 μg/cm^2
Amount of drug permeated through the skin ([4]; 32° C., 24 hr): 2 μg/cm^2
Amount of drug permeated through the skin ([4]; 32° C., 36 hr): 5 μg/cm^2
Amount of drug permeated through the skin ([4]; 38° C., 2 hr): 1 μg/cm^2
Amount of drug permeated through the skin ([4]; 38° C., 4 hr): 3 μg/cm^2
Amount of drug permeated through the skin ([4]; 38° C., 12 hr): 60 μg/cm^2
Amount of drug permeated through the skin ([4]; 38° C., 24 hr): 170 μg/cm^2
Amount of drug permeated through the skin ([4]; 38° C., 36 hr): 330 μg/cm^2
Compound: CC(=O)Nc1ccc(O)cc1 [acetaminophen]
